Results published in patent publication US20250108139A1, “PEPTIDE UREA DERIVATIVE, PHARMACEUTICAL COMPOSITION CONTAINING PEPTIDE UREA DERIVATIVE, AND APPLICATION OF PEPTIDE UREA DERIVATIVE” (BIVISION PHARMACEUTICALS, INC, priority 2022, published 2025).

Key:
[1] = system: 22rv1 tumor-bearing Balb/c Nude mouse; experiment: Treatment efficacy in 22RV1 tumor-bearing mouse model; type: in vivo; settings: for T/C: 21st day; for Tumor volume, 21st day of group administration: mean ± standard error
Protocol: Balb/c Nude mouse, approximately 6-8 weeks old, were subcutaneously inoculated with 3×10^6 22rv1 cells (in 50% Matrigel, Corning) into the right scapular region. Once the tumors reached the required size for the experiment, the animals were randomly assigned into 11 experimental groups based on tumor volume, with 5 mouse per group. The body weight and tumor size of the animals were measured. On the day of grouping, treatments were administered as follows: control group (normal saline), group 1 (^177Lu-DB-13, 0.15 mCi/mouse), group 2 (^177Lu-DB-13, 0.45 mCi/mouse), group 3 (^177Lu-DB-13, 0.05 mCi/mouse), group 4 (^177Lu-B-11, 0.05 mCi/mouse), group 5 (^177Lu-DB-11, 0.15 mCi/mouse), group 6 (^177Lu-DB-11, 0.45 mCi/mouse), group 7 (^177Lu-PSMA-617, 0.15 mCi/mouse), group 8 (^177Lu-PSMA-617, 0.45 mCi/mouse), group 9 (^177Lu-DB-19, 0.05 mCi/mouse), group 10 (^177Lu-DB-19, 0.15 mCi/mouse), group 11 (^177Lu-DB-19, 0.45 mCi/mouse). After the start of treatment, general health and appearance were observed daily. Body weight and tumor size were measured at each sampling time point. Any abnormal observations during the study were recorded in the raw data.

[2] = target: hPSMA-biotin (Homo sapiens (Human), UniProt Q04609); experiment: Binding kinetics and affinity with PSMA protein by Biacore 8K (Effect Example 1); settings: for Kd / kd / kon: 1:1 binding model; for kon: read-out: ka
Protocol: The dissociation constant was determined using the Biacore 8K (GE Healthcare) following the manufacturer's instructions. In brief, PSMA-bio protein, diluted in PBS pH 7.4 with 1 mM TCEP, 0.05% Tween 20, and 2% DMSO buffer, was immobilized on the flow cell of an SA sensor chip. Using PBS pH 7.4, 1 mM TCEP, 0.05% Tween 20, and 2% DMSO as the running buffer, five serial dilutions of the PSMA-targeting candidate molecules were injected into the flow cell at a rate of 30 μL/min, with a binding time of 90 seconds. The buffer flow was maintained for 1800 seconds to allow dissociation. The KD values for the interaction between the candidate small molecules and the PSMA protein were evaluated using Biacore 8K evaluation software 1.0 and a 1:1 binding model.

[3] = target: PSMA protein (Homo sapiens (Human), UniProt Q04609); experiment: Affinity of DB compounds to PSMA protein using Biacore (Effect Example 3); settings: Biacore 8K, 15° C., 1:1 binding model; pKD=−Log KD
Protocol: The affinity of DB compounds to PSMA protein was tested using the Biacore 8K (Cytiva) instrument to detect ligand binding to PSMA protein (Sino Biological). PSMA protein was captured on an SA chip. Before fixing the ligand (flow paths 1 and 2, flow rate of 10 μL/min), PSMA protein (10 μg/mL, flow rate of 5 μL/min, injection time of 600 s) was fixed on flow path 2 using a flow buffer. The sensor surface was adjusted by continuously injecting 1 M NaCl three times in 50 mM NaOH. After each ligand injection, additional cleaning was performed using isopropanol in 1 M NaCl and 50 mM NaOH (flow paths 1 and 2, flow rate of 10 μL/min, injection time of 60 s).
All compounds were dissolved in 100% DMSO and diluted to 10 mM, then further diluted to the appropriate highest concentration in the analysis buffer (PBS, PH 7.4, 1 mM TCEP ([…]), 0.05% P20, 2% DMSO). The analysis was conducted under the following conditions: 15° C. analysis temperature; analysis steps=all set to LMW kinetics; cycle type=single cycle (90 s contact time, 1800 s dissociation time, 30 μL/min flow rate, flow paths 1 and 2); detection in flow=path 2-1. Data evaluation was performed using Biacore Insight Evaluation Software, fitting the data to a 1:1 binding model.
Biacore results are shown in Table 5: pKD=−Log KD, wherein KD is the binding affinity of the compound to PSMA protein measured by Biacore. It is expressed by Kd (M)=Kd (1/s)/Ka (1/Ms). A indicates pKD>8; B indicates 7<pKD<8; C indicates 6<pKD<7; D indicates pKD<6.

[4] = system: PSMA-positive 22rv1 tumor-bearing mouse; experiment: 177Lu labeling and animal biodistribution experiment, gamma counter; type: in vivo; settings: 177Lu-labeled compound, 24 h after tail vein injection, n = 2
Protocol: Distribution in PSMA-positive tumor-bearing mouse tissues: Tumor-bearing animals (purchased from Shanghai Alamo Pharmaceutical Technology Co., Ltd.) were subcutaneously inoculated with 3×10^6 22rv1 cells (in 50% Matrigel, Corning) into the right shoulder region of 6-9 week old (Balb/c Nude) mouse. Once the tumors had grown to an appropriate size, ^177Lu-radiolabeled DB compounds were injected into the mouse via the tail vein (approximately 1.85 MBq-3.7 MBq/mouse, specific activity: 22423.82 Kbq/μg). After administration, the animals were euthanized using carbon dioxide inhalation at 24 hours. The blood and organs (blood, liver, kidney, muscle, tumor) were collected.
Blood was collected through the abdominal aorta and 100 μL was immediately quantified into designated centrifuge tubes (weighed). After collection, the organs were washed twice with deionized water, dried, placed in pre-weighed tubes, and weighed again to calculate the sample weight. Samples were measured on the day of collection. All blood and tissue samples were measured for radioactivity using a gamma counter. The results are shown in FIGS. 3, 4, 5, 6, 7, and Table 6.

Chain of hPSMA-biotin (Q04609 whole entry): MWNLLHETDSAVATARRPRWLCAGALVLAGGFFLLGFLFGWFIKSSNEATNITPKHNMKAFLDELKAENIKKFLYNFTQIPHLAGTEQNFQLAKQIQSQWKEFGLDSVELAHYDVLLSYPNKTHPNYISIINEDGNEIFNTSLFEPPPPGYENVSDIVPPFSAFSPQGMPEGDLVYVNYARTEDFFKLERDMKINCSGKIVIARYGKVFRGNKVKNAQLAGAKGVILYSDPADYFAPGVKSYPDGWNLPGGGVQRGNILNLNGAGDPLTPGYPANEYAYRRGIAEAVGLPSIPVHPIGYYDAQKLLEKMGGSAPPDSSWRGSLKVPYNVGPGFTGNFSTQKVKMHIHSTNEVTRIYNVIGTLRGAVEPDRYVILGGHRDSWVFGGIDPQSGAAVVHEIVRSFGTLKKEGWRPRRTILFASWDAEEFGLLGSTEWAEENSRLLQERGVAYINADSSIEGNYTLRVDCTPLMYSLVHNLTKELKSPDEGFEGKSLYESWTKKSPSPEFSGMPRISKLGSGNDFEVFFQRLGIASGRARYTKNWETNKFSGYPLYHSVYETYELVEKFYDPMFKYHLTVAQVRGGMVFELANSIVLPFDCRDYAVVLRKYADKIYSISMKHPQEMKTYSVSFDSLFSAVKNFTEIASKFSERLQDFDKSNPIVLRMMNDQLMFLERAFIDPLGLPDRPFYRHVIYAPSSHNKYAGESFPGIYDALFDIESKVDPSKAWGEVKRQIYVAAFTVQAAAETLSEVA
Chain of PSMA protein (Q04609 whole entry): as above

SMILES	T/C ([1]; 0.15 mCi/mouse) [%]	Tumor volume, 21st day of group administration ([1]; 0.15 mCi/mouse)	T/C ([1]; 0.45 mCi/mouse) [%]	Tumor volume, 21st day of group administration ([1]; 0.45 mCi/mouse)	binding affinity compared with PSMA-617 [2]	Kd [2] [µM]	kd [2] [s⁻¹]	kon [2] [M⁻¹ s⁻¹]	Kd [3] [µM]	Blood uptake [4] [% ID/g]	Kidney uptake [4] [% ID/g]	Liver uptake [4] [% ID/g]	Muscle uptake [4] [% ID/g]	Tumor uptake [4] [% ID/g]	tumor growth inhibition ([1]; high dose 0.45 mCi, effect decreased over time, remained higher than PSMA-617)
O=C([O-])CN1CCN(CC(=O)[O-])CCN(CC(=O)NCC2CCC(C(=O)N[C@@H](Cc3ccc4ccccc4c3)C(=O)NCCCC[C@H](NC(=O)N[C@@H](CCC(=O)O)C(=O)O)C(=O)O)CC2)CCN(CC(=O)[O-])CC1.[177Lu+3] (stereo partly shown) [177Lu-PSMA-617]	97.41	2,616.99 ± 203.91 mm^3	101.47	2,726.19 ± 926.52 mm^3	–	–	–	–	–	–	–	–	–	–	–
O=C(O)CC[C@H](NC(=O)N[C@@H](CCCCNC(=O)[C@H](Cc1ccc2ccccc2c1)NC(=O)[C@H]1CC[C@H](CNC(=O)c2cc(NC(=O)CN3CCN(CC(=O)O)CCN(CC(=O)O)CCN(CC(=O)O)CC3)cc(C(=O)NC[C@H]3CC[C@H](C(=O)N[C@@H](Cc4ccc5ccccc5c4)C(=O)NCCCC[C@H](NC(=O)N[C@@H](CCC(=O)O)C(=O)O)C(=O)O)CC3)c2)CC1)C(=O)O)C(=O)O [DB-01]	–	–	–	–	slightly higher than that of PSMA-617	0.00012	2.65e-05	222000	< 0.01	–	–	–	–	–	–
O=C(O)CC[C@H](NC(=O)N[C@@H](CCCCNC(=O)[C@H](Cc1ccc2ccccc2c1)NC(=O)c1ccc2c(c1)CCN(C(=O)CCC(=O)NCCCC[C@H](NC(=O)CCC(=O)N1CCc3cc(C(=O)N[C@@H](Cc4ccc5ccccc5c4)C(=O)NCCCC[C@H](NC(=O)N[C@@H](CCC(=O)O)C(=O)O)C(=O)O)ccc3C1)C(=O)NCCNC(=O)CN1CCN(CC(=O)O)CCN(CC(=O)O)CCN(CC(=O)O)CC1)C2)C(=O)O)C(=O)O [DB-11]	–	–	–	–	–	–	–	–	< 0.01	1.125	87.105	1.625	0.055	41.83	a certain degree of tumor growth inhibition
O=C(O)CC[C@H](NC(=O)N[C@@H](CCCCNC(=O)[C@H](Cc1ccc2ccccc2c1)NC(=O)c1ccc(C2CCN(C(=O)CCC(=O)NCC(=O)N3CN(C(=O)CNC(=O)CCC(=O)N4CCC(c5ccc(C(=O)N[C@@H](Cc6ccc7ccccc7c6)C(=O)NCCCC[C@H](NC(=O)N[C@@H](CCC(=O)O)C(=O)O)C(=O)O)cc5)CC4)CN(C(=O)CNC(=O)CN4CCN(CC(=O)O)CCN(CC(=O)O)CCN(CC(=O)O)CC4)C3)CC2)cc1)C(=O)O)C(=O)O [DB-12]	–	–	–	–	–	–	–	–	< 0.01	0.145	88.175	1.415	0.135	–	–
O=C(O)CC[C@H](NC(=O)N[C@@H](CCCCNC(=O)[C@H](Cc1ccc2ccccc2c1)NC(=O)c1ccc2c(c1)CCN(C(=O)CCC(=O)NCC(=O)N1CN(C(=O)CNC(=O)CCC(=O)N3CCc4cc(C(=O)N[C@@H](Cc5ccc6ccccc6c5)C(=O)NCCCC[C@H](NC(=O)N[C@@H](CCC(=O)O)C(=O)O)C(=O)O)ccc4C3)CN(C(=O)CNC(=O)CN3CCN(CC(=O)O)CCN(CC(=O)O)CCN(CC(=O)O)CC3)C1)C2)C(=O)O)C(=O)O [DB-14]	–	–	–	–	–	–	–	–	< 0.01	0.06	31.72	0.37	0.1	43.175	–
O=C(O)CC[C@H](NC(=O)NC(CCCCNC(=O)[C@H](Cc1ccc2ccccc2c1)NC(=O)[C@H]1CC[C@H](NC(=O)COCCOCCNC(=O)c2cc(NC(=O)CCCCCCCNC(=O)CN3CCN(CC(=O)O)CCN(CC(=O)O)CCN(CC(=O)O)CC3)cc(C(=O)NCCOCCOCC(=O)N[C@H]3CC[C@H](C(=O)N[C@@H](Cc4ccc5ccccc5c4)C(=O)NCCCC[C@H](NC(=O)N[C@@H](CCC(=O)O)C(=O)O)C(=O)O)CC3)c2)CC1)C(=O)O)C(=O)O (stereo partly shown) [DB-15]	–	–	–	–	–	–	–	–	< 0.01	0.035	8.76	0.095	0.04	19.46	–
O=C(O)CC[C@H](NC(=O)NC(CCCCNC(=O)[C@H](Cc1ccc2ccccc2c1)NC(=O)[C@H]1CC[C@H](NC(=O)CCC(=O)NCCCC[C@H](NC(=O)CCC(=O)N[C@H]2CC[C@H](C(=O)N[C@@H](Cc3ccc4ccccc4c3)C(=O)NCCCC[C@H](NC(=O)N[C@@H](CCC(=O)O)C(=O)O)C(=O)O)CC2)C(=O)NCCNC(=O)CN2CCN(CC(=O)O)CCN(CC(=O)O)CCN(CC(=O)O)CC2)CC1)C(=O)O)C(=O)O (stereo partly shown) [DB-16]	–	–	–	–	–	–	–	–	< 0.01	0.03	5.135	0.185	0.045	12.015	–
O=C(O)CC[C@H](NC(=O)NC(CCCCNC(=O)[C@H](Cc1ccc2ccccc2c1)NC(=O)c1ccc(C2CCN(C(=O)CCC(=O)NCCCC[C@H](NC(=O)CCC(=O)N3CCC(c4ccc(C(=O)N[C@@H](Cc5ccc6ccccc6c5)C(=O)NCCCC[C@H](NC(=O)N[C@@H](CCC(=O)O)C(=O)O)C(=O)O)cc4)CC3)C(=O)NCCNC(=O)CN3CCN(CC(=O)O)CCN(CC(=O)O)CCN(CC(=O)O)CC3)CC2)cc1)C(=O)O)C(=O)O (stereo partly shown) [DB-20]	–	–	–	–	–	–	–	–	< 0.01	0.160	74.455	1.020	0.175	41.73	–
O=C(O)CC[C@H](NC(=O)NC(CCCCNC(=O)[C@H](Cc1ccc2ccccc2c1)NC(=O)c1ccc(C2CCN(C(=O)CNC(=O)c3cc(NC(=O)COCCOCCNC(=O)CN4CCN(CC(=O)O)CCN(CC(=O)O)CCN(CC(=O)O)CC4)cc(C(=O)NCC(=O)N4CCC(c5ccc(C(=O)N[C@@H](Cc6ccc7ccccc7c6)C(=O)NCCCC[C@H](NC(=O)N[C@@H](CCC(=O)O)C(=O)O)C(=O)O)cc5)CC4)c3)CC2)cc1)C(=O)O)C(=O)O (stereo partly shown) [DB-21]	–	–	–	–	–	–	–	–	< 0.01	1.54	150.54	3.645	0.465	77.54	–
O=C(O)CC[C@H](NC(=O)N[C@@H](CCCCNC(=O)[C@H](Cc1ccc2ccccc2c1)NC(=O)[C@H]1CC[C@H](CNC(=O)CN2CCN(CC(=O)O)CCN(CC(=O)O)CCN(CC(=O)O)CC2)CC1)C(=O)O)C(=O)O [PSMA-617, reference compound]	–	–	–	–	–	0.000483	4.88e-05	101000	< 0.01	–	–	–	–	–	–
